Activity calls are given as the source filed them.
Key:
A-375 [1] = assay: A375 melanoma cell viability reduction, dose response, counter-screen for MITF modulator project, cherry-pick samples, set 2 (AID 540335); format: functional, cell-based; conditions: Homo sapiens
A-375 [2] = assay: MITF: Counter assay: A375 proliferation Measured in Cell-Based System Using Plate Reader - 2084-03_Inhibitor_Dose_DryPowder_Activity. [Related pubchem assays (depositor defined):AID488944]; format: functional; conditions: Homo sapiens
Escherichia coli [3] = assay: microbe, parasite or virus in culture
[4] = molecular target: T1, Heat shock factor protein 1 (Mus musculus, UniProt P38532); assay: inhibition of MG132-induced HSE-luciferase signal, confirmation, cell-based, NIH3T3, luminescence, dose retest (AID 2382); format: functional;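 also: NIH3T3 fibroblasts with HSF1-driven luciferase reporter stressed by proteasome inhibitor MG132; luminescence from HSF1-driven luciferase expression after 8 hours of MG132 stress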
T1 sequence (P38532 whole entry): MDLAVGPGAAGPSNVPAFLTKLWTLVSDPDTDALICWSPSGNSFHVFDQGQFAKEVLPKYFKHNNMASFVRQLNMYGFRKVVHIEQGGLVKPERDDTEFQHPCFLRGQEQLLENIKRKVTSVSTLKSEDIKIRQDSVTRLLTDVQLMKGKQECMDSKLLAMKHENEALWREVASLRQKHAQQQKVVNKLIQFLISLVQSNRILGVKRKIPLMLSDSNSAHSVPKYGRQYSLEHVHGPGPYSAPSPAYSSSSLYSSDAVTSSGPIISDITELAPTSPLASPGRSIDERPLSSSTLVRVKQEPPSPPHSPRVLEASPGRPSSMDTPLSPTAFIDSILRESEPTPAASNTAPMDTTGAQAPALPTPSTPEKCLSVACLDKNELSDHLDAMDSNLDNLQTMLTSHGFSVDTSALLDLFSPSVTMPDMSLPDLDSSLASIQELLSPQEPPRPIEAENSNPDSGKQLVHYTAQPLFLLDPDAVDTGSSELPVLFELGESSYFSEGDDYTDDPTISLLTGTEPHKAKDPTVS

[5] = molecular target: T2, Sentrin-specific protease 8 (Homo sapiens, UniProt Q96LD8); assay: SENP8 protease inhibitors, SAR follow-up, biochemical, luminescence (AID 504501); format: functional
T2 sequence (Q96LD8 whole entry): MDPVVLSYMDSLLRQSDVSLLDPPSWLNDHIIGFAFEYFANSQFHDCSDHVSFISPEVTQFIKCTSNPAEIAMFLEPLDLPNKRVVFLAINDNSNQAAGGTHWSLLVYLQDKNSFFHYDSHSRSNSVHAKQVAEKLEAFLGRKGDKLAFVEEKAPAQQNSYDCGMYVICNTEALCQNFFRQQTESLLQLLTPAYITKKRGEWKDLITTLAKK

Caspase-3 = molecular target: T3, Caspase-3 (Homo sapiens, UniProt P42574); assay: SAR Analysis of small molecule inhibitors of Sentrin-specific proteases (SENPs) using a Caspase-3 Selectivity assay. [Related pubchem assays (depositor defined):AID2540, AID2599, AID434973, AID489001]; format: functional
T3 sequence (P42574 whole entry): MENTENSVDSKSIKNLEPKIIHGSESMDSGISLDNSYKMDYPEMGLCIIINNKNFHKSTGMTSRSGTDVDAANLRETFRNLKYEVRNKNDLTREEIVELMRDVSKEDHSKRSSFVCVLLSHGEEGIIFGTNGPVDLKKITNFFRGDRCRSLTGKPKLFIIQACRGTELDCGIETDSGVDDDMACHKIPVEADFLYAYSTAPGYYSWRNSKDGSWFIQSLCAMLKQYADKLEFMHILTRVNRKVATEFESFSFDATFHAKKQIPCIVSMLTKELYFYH

[6] = molecular target: T4, Sentrin-specific protease 6 (Homo sapiens, UniProt Q9GZR1); assay: SAR Analysis of small molecule inhibitors of Sentrin-specific protease 6 (SENP6) using a Luminescent assay. [Related pubchem assays (depositor defined):AID2582, AID2599]; format: functional
T4 sequence (Q9GZR1 whole entry): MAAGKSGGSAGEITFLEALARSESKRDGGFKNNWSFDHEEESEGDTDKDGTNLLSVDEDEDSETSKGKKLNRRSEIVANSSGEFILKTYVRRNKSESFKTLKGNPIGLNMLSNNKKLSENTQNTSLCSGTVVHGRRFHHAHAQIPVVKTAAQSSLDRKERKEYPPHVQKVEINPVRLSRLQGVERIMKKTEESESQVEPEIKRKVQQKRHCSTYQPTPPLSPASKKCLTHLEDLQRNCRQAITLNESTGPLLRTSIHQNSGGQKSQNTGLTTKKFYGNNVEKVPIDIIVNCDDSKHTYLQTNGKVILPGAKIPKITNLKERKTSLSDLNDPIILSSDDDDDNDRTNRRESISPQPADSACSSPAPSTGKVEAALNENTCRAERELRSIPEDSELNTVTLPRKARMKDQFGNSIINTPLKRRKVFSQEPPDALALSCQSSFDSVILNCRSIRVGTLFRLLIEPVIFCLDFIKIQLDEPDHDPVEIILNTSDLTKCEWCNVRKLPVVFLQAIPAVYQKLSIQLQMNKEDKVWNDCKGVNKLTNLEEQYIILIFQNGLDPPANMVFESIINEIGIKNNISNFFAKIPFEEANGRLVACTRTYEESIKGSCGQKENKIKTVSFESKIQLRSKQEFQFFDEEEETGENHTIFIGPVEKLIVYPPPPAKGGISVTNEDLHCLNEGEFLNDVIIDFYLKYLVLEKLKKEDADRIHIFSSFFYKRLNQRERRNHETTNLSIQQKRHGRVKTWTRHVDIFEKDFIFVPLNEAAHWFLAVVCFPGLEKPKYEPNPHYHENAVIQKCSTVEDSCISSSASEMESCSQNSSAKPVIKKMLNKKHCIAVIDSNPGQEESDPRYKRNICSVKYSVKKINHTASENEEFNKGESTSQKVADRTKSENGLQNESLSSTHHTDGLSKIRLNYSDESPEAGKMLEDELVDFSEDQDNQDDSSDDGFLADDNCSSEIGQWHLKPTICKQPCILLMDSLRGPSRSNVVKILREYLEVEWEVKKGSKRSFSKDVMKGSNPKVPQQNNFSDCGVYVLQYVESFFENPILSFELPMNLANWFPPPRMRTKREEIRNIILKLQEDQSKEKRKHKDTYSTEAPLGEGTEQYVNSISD

[7] = molecular target: T5, Sentrin-specific protease 7 (Homo sapiens, UniProt Q9BQF6); assay: SENP7 protease inhibitors, SAR follow-up, biochemical, luminescence (AID 504497); format: functional
T5 sequence (Q9BQF6 whole entry): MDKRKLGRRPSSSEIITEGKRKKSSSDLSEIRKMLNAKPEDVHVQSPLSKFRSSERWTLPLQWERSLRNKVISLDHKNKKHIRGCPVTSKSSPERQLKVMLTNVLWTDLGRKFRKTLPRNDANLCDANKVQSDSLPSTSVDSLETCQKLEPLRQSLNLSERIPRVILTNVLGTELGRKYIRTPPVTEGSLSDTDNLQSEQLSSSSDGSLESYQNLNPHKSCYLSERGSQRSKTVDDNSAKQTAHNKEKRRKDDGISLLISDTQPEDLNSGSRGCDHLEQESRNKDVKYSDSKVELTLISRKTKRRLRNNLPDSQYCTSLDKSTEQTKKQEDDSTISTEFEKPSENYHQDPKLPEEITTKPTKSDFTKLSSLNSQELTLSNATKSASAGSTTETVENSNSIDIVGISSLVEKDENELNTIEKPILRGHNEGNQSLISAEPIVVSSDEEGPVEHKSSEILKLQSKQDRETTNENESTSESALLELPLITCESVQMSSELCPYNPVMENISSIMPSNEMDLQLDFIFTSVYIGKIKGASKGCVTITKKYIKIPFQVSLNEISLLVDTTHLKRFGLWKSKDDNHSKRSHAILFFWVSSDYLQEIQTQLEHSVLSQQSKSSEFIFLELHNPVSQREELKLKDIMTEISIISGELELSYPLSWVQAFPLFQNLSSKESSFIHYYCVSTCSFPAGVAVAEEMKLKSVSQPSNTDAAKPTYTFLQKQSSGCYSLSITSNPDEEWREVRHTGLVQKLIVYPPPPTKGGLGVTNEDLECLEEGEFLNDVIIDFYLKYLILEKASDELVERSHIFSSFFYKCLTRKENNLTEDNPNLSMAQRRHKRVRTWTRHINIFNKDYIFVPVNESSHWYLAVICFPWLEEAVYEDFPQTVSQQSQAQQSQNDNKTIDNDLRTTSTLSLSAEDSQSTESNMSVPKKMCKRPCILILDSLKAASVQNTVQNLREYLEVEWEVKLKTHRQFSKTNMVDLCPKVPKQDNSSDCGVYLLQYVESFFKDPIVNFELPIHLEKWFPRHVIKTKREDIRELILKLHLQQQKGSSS

Phospholipase D2 = Phospholipase D2 (Homo sapiens, UniProt O14939); assay: PLD2 inhibitor potency in cells, dose response (AID 602147); format: functional;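 also: cellular assay in HEK293 cells overexpressing GFP-tagged PLD2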
Phospholipase D2, sequence (O14939 whole entry): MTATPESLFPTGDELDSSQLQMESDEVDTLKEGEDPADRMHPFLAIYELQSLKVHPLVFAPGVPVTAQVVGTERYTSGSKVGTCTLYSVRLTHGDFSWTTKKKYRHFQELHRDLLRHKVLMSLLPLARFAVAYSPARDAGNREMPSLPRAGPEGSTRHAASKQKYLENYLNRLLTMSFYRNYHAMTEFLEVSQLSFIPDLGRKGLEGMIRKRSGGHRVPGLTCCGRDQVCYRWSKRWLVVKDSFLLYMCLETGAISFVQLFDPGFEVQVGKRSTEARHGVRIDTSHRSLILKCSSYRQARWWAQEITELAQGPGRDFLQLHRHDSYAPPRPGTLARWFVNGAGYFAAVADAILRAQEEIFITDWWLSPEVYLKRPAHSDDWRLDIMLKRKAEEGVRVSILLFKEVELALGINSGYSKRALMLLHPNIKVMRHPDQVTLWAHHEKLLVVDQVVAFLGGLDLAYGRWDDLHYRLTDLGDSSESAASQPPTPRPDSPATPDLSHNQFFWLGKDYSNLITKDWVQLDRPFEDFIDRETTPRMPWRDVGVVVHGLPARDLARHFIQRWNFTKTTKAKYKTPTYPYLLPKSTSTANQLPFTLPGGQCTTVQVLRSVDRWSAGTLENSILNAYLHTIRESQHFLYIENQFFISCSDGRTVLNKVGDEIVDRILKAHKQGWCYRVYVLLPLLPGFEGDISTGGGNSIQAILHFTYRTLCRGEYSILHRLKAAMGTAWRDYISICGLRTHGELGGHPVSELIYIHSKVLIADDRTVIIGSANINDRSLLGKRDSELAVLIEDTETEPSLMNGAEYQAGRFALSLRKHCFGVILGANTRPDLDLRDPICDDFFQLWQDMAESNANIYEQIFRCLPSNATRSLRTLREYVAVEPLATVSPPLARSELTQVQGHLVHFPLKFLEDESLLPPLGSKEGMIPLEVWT

Phospholipase D1 = Phospholipase D1 (Homo sapiens, UniProt Q13393); assay: PLD1 inhibitor potency in cells, dose response (AID 602151); format: functional;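 also: cellular PLD1 assay in Calu-1 cells stimulated with PMA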
Phospholipase D1, sequence (Q13393 whole entry): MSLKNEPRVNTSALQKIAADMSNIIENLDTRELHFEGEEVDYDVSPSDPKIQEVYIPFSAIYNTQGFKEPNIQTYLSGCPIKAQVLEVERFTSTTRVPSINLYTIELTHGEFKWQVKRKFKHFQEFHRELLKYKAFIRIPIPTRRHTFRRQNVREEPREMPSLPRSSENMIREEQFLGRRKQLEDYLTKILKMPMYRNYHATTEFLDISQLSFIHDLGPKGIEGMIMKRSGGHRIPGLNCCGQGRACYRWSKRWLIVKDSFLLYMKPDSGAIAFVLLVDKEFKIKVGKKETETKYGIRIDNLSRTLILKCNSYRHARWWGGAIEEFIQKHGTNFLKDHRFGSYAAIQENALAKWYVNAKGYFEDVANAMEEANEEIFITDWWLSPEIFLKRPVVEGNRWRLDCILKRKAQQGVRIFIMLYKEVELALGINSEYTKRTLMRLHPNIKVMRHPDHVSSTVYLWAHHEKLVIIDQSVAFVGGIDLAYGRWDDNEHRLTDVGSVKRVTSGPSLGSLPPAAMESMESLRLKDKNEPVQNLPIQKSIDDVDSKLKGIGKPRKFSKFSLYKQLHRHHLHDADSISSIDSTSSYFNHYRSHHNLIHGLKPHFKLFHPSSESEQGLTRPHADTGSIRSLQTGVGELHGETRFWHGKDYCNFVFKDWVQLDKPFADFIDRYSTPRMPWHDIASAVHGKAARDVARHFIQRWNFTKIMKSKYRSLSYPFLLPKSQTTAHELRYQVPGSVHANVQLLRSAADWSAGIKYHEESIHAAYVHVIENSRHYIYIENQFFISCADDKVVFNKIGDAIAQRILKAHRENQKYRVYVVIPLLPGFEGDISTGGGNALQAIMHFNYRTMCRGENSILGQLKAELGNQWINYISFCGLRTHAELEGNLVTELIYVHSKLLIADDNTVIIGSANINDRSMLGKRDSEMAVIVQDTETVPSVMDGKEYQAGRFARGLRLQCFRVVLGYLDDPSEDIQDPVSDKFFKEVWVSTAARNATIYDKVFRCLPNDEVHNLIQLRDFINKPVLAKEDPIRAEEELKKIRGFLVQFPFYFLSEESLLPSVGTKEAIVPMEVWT

HEK293 [8] = assay: cytotoxicity in HEK293T NF-kB-Luc cells, SAR follow-up, cytotoxicity control for NF-kB activator project, cell-based, resazurin fluorescence (AID 493251); format: functional; conditions: Homo sapiens
HEK293 [9] = assay: SAR Analysis of small molecule inhibitors of B-cell specific antigen receptor-induced NF-kB activation in a HEK-293T cell line using a luminescence assay - Set 2. [Related pubchem assays (depositor defined):AID435022, AID435025, AID489021]; format: functional, cell-based; conditions: Homo sapiens
Jurkat = assay: SAR Analysis of small molecule inhibitors of […] specific antigen receptor-induced NF-kB activation in a Jurkat cell line using a luminescence assay - Set 3. [Related pubchem assays (depositor defined):AID435022, AID435025, AID465]; format: functional, cell-based; conditions: Homo sapiens
Escherichia coli [10] = assay: microbe, parasite or virus in culture; remark: listed apart in the source
[11] = molecular target: T6, Voltage-gated N-type calcium channel alpha-1B subunit/Amyloid beta A4 precursor protein-binding family A member 1 (Homo sapiens, UniProt Q00975+Q02410); assay: disruptors of Mint-PDZ/N-type channel peptide interaction – biochemical, HTRF, SAR follow-up (AID 2489); format: functional
[12] = molecular target: T6, Voltage-gated N-type calcium channel alpha-1B subunit/Amyloid beta A4 precursor protein-binding family A member 1; assay: disruptors of Mint-PDZ/N-type channel peptide interaction – biochemical, HTRF, set 2, SAR follow-up (AID 434980); format: functional
[13] = molecular target: DNA repair protein RAD52 homolog (Homo sapiens, UniProt P43351); format: functional, biochemical
DNA repair protein RAD52 homolog, sequence (P43351 whole entry): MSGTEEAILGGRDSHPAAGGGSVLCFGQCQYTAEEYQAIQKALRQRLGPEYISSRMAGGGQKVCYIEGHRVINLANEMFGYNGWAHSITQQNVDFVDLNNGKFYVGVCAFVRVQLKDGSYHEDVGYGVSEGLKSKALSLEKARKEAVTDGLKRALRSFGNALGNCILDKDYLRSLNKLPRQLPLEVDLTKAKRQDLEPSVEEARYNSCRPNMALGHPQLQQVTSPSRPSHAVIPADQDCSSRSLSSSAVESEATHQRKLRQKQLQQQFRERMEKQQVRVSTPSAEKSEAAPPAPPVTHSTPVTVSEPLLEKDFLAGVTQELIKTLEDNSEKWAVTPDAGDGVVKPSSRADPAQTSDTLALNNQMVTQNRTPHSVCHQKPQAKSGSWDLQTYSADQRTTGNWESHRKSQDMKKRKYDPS

SUMO E1/E2 = SUMO E1/E2 (Homo sapiens, UniProt P63279+Q9UBE0+Q9UBT2); assay: SAR analysis of SUMOylation using HTRF in an in-Vitro dose response assay. [Related pubchem assays (depositor defined):AID2006, AID2011, AID2018, AID2069, AID2658]; format: functional
SUMO E1/E2, sequence (Q9UBE0 whole entry): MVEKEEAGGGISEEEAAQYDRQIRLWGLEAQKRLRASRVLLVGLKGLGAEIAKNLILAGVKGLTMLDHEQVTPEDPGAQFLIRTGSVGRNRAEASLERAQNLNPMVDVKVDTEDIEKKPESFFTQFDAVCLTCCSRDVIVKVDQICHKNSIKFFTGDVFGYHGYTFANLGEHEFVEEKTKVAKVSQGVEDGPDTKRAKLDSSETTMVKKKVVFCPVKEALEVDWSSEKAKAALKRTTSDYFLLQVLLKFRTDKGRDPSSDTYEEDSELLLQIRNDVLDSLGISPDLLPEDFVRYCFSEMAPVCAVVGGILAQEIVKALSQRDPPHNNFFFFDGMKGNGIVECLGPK
SUMO E1/E2, sequence (Q9UBT2 whole entry): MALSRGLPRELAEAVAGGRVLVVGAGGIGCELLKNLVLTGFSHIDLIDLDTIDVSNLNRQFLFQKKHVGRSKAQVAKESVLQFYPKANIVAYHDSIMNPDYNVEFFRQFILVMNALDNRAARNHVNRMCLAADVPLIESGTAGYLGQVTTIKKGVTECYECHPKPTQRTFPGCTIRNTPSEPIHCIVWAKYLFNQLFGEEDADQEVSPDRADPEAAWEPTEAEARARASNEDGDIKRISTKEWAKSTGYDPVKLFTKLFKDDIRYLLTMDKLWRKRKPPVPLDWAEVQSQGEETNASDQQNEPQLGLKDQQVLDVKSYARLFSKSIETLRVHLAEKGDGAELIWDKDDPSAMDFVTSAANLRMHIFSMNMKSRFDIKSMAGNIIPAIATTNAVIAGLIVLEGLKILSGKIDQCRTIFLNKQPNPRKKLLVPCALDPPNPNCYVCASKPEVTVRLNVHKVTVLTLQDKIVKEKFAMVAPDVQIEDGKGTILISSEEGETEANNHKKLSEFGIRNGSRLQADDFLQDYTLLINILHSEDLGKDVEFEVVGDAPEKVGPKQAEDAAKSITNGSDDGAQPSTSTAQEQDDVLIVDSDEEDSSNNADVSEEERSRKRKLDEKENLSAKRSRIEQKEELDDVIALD
SUMO E1/E2, sequence (P63279 whole entry): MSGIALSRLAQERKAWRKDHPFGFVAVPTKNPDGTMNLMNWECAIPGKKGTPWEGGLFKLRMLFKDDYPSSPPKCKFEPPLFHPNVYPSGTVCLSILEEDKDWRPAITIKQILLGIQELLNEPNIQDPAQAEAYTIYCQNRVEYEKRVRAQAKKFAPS

CCOc1ccc(N(CC(=O)Nc2ccc(OC)cc2)S(C)(=O)=O)cc1
AC50 (A-375 [1]): > 35 µM (active)
AC50 (A-375 [2]): > 35 µM (active)

CCN1CCN(CCCNc2[nH]cnc3ncnc2-3)CC1
AC50 (Escherichia coli [3]): 74.1 µM (active)
EC50 [4]: > 195 µM (not active)

COc1ccccc1CC(=O)Nc1ccc(-c2noc(/C=C/c3ccccc3)n2)cc1
IC50 [5]: > 99 µM (inactive)
IC50 (Caspase-3): > 99 µM (inactive)
IC50 [6]: > 99 µM (inactive)
IC50 [7]: > 99 µM (inactive)

O=C(NCCN1CCC2(CC1)C(=O)NCN2c1ccc(Cl)cc1)c1ccc(Cl)cc1
IC50 (Phospholipase D2): 0.635 µM (active)
IC50 (Phospholipase D1): 3.59 µM (active)

C[C@@H](CN1CCC(n2c(=O)[nH]c3ccccc32)CC1)NC(=O)c1ccco1
IC50 (Phospholipase D2): 7.9 µM (active)
IC50 (Phospholipase D1): 0.19 µM (active)

CCOc1ccc(-c2nc(CSCC(=O)NCCc3ccccc3)c(C)o2)cc1
IC50 (HEK293 [8]): 35.6 µM (inactive)
IC50 (HEK293 [9]): 22.9 µM (inactive)
IC50 (Jurkat): 55 µM (inactive)

CC(C)CNC(=O)CCc1nc(-c2ccc(C(C)(C)C)cc2)no1
IC50 (HEK293 [8]): > 80 µM (inactive)
IC50 (HEK293 [9]): 1.51 µM (active)
IC50 (Jurkat): 2.97 µM (active)

Cc1ccc(C2CC2/C(=N/O)c2ccc(F)cc2)cc1 (centres undefined)
AC50 (Escherichia coli [3]): 53.3 µM (active)
AC50 (Escherichia coli [10]): 25.9 µM (active)

CCN(CC)CCNC(=O)c1cc(-c2ccco2)nc2ccccc12
IC50 [11]: 5.19 µM (active)
IC50 [12]: 6 µM (active)
AC50 [13]: 11.7 µM (active)
IC50 (SUMO E1/E2): 2.01 µM (active)

From ChEMBL document CHEMBL1201862, “PubChem BioAssay data set” (2004)
